In ChEMBL document CHEMBL1201862, “PubChem BioAssay data set” (2004):
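Grown in 96-well plates, cells were treated for 48 hours with each compound at five concentrations. Insufficient inhibition: endpoint recorded as highest concentration tested. Here, GI50 denotes the concentration required for 50% inhibition of growth.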 Calls of active or inactive are those of the source. No stated cut-off is given here; in the data, active = GI50 up to about 1.1 µM and inactive = higher.

What was measured:
Assay in all cases: growth of human tumour cells (NCI), 48 h
DLD-1 = system: DLD-1
DMS-114 = system: DMS-114
LXFL 529 = system: LXFL 529
M19-MEL = system: M19-MEL
RXF 631 = system: RXF 631

Measured: GI50

N#C/C(=C\c1ccc(CP(=O)(O)O)cc1)C(N)=O
inactive: DLD-1 > 100 µM | DMS-114 > 100 µM | LXFL 529 > 100 µM | M19-MEL > 100 µM

O=C1C(=O)N(c2ccc(Cl)cc2Cl)C(=O)C(=O)C1c1nc2ccccc2o1
inactive: DLD-1 > 100 µM | LXFL 529 > 100 µM | M19-MEL > 100 µM | RXF 631 > 100 µM

CCOC(=O)c1ccc(/N=N\c2ccc(N(CCC#N)CCC#N)cc2C)cc1
inactive: DLD-1 > 100 µM | DMS-114 > 100 µM | LXFL 529 35.9 µM | M19-MEL > 100 µM | RXF 631 > 100 µM

CC1=NN(c2ccccc2)C(=O)C1/N=N/c1ccc(Br)c(C)c1 (centres undefined)
inactive: DLD-1 > 100 µM | DMS-114 > 100 µM | LXFL 529 > 100 µM | M19-MEL > 100 µM | RXF 631 > 100 µM

Cc1cc([N+](=O)[O-])c(C)c2c1[nH]c1ccc(Cl)cc12
inactive: DLD-1 > 10 µM | DMS-114 > 100 µM | M19-MEL > 100 µM

NC1=NC2=C(CCCC2)C(c2cccs2)S1 (centres undefined)
inactive: DMS-114 42.8 µM | LXFL 529 > 100 µM | M19-MEL > 100 µM

CN(C)CCN1N=Nc2cccc3cccc1c23
inactive: DLD-1 > 80.7 µM | DMS-114 > 74.8 µM | LXFL 529 > 87.3 µM | RXF 631 > 100 µM

CCCC1C(=O)CCc2c(OC)ccc(OC)c21 (centres undefined)
inactive: DLD-1 > 100 µM | DMS-114 48.2 µM | LXFL 529 > 100 µM | M19-MEL > 100 µM

CC(C)(C)C1CCC2c3c([nH]c4ncccc34)C3C(=O)N(c4ccccc4)C(=O)C3C2C1 (centres undefined)
inactive: DLD-1 > 100 µM | DMS-114 80 µM | LXFL 529 > 100 µM | M19-MEL > 100 µM

Cc1cc(C)nc(NS(=O)(=O)c2ccc(NC(=O)c3cccc4c(=O)c5ccccc5[nH]c34)cc2)n1
inactive: DLD-1 20.7 µM | DMS-114 18.4 µM | LXFL 529 14.3 µM | RXF 631 60 µM

Cc1ccc(NC(=O)CC/C(CC(=O)C(C)(C)C)=N/Nc2nnc(C)n2N)cc1C
inactive: DMS-114 62.2 µM | LXFL 529 > 100 µM | M19-MEL > 100 µM | RXF 631 > 100 µM

CC(C)(C)NC(=O)C12C3C4C1C1C2C3C41I (centres undefined)
inactive: DMS-114 > 100 µM | LXFL 529 > 100 µM | M19-MEL > 100 µM | RXF 631 > 100 µM

COC(=O)c1cc(-c2ccc(OC)c(OC)c2)oc1-c1ccc(OC)c(OC)c1
inactive: DLD-1 30.1 µM | DMS-114 31.9 µM | LXFL 529 27.7 µM | M19-MEL 41.3 µM | RXF 631 30.5 µM

Cc1cccc(C)c1NC(=O)C(=O)C(C(=O)c1ccccc1-c1ccccc1)C1OC(=O)c2ccccc21 (centres undefined)
inactive: DLD-1 17.5 µM | DMS-114 13.7 µM | LXFL 529 13.5 µM | M19-MEL 15.6 µM | RXF 631 31.8 µM

CSc1ccc(-c2cn3ccsc3n2)c(O)c1
inactive: DLD-1 40.4 µM | DMS-114 26.1 µM | LXFL 529 > 54.5 µM | RXF 631 > 70.8 µM

NC1=NCCC1(c1ccccc1)c1ccccn1 (centres undefined)
inactive: DMS-114 > 100 µM | LXFL 529 > 100 µM | M19-MEL > 100 µM

O=c1c(Br)cc2nc3ccccc3sc-2c1Br
inactive: DLD-1 > 100 µM | DMS-114 17.9 µM | LXFL 529 28.1 µM | M19-MEL 17.5 µM | RXF 631 > 100 µM

Cc1cccc(NC2=NC(=O)C(CC(=O)Nc3ccc(Cl)cc3C)S2)c1 (centres undefined)
inactive: DLD-1 > 100 µM | DMS-114 > 100 µM | LXFL 529 > 100 µM | M19-MEL > 100 µM | RXF 631 > 100 µM

CCC(O)CCCCCCCCCCCCCCC(=O)O (centres undefined)
inactive: DLD-1 > 100 µM | DMS-114 > 100 µM | LXFL 529 > 100 µM | M19-MEL > 100 µM | RXF 631 78.3 µM

CN(C)c1ccc(C(C#N)NNC(=O)Cc2ccccc2)cc1 (centres undefined)
inactive: DLD-1 > 100 µM | DMS-114 > 100 µM | LXFL 529 > 100 µM | M19-MEL > 100 µM

CC1=C(c2cc(C(=O)Nc3ccc(Cl)cc3)nc(S)n2)Sc2ccccc2N1
inactive: DLD-1 > 100 µM | DMS-114 > 100 µM | LXFL 529 > 100 µM | M19-MEL > 100 µM | RXF 631 > 100 µM

CCN(CC)CCCNC(=O)Cc1ccccc1Nc1c(Cl)cccc1Cl
inactive: DLD-1 15 µM | DMS-114 13.6 µM | LXFL 529 7.67 µM | M19-MEL 4.97 µM

COc1ccc([C@@H]2C[C@@H]3C(=O)OC(=O)[C@@H]3c3c2c2ccccc2n3C)cc1
inactive: DLD-1 > 100 µM | DMS-114 > 100 µM | LXFL 529 > 100 µM | M19-MEL > 100 µM | RXF 631 > 100 µM

Nc1c(-c2ccc(Cl)cc2)[n+]([O-])c2ccccc2[n+]1[O-]
inactive: DLD-1 88.7 µM | DMS-114 46.1 µM | LXFL 529 52.7 µM | M19-MEL > 100 µM

CC[N+](CC)(CC)Cc1cn(S(=O)(=O)c2ccccc2)c2ccccc12
inactive: DLD-1 > 100 µM | DMS-114 > 100 µM | M19-MEL > 100 µM

Cc1cc(NS(=O)(=O)c2ccc(NC(=O)c3cccc4c(Nc5ccc(S(=O)(=O)Nc6cc(C)on6)cc5)c5ccc(Cl)cc5nc34)cc2)no1
inactive: DLD-1 63.2 µM | DMS-114 38.9 µM | LXFL 529 43.2 µM | M19-MEL 41.9 µM

CCCCCCCCCCCCCC/C(C(=O)OC)=C(/O)C(=O)OCC
inactive: DLD-1 30.5 µM | DMS-114 > 100 µM | LXFL 529 39.3 µM | M19-MEL 54.8 µM | RXF 631 33 µM
